# Experiments:
# [1] = target: T1, At3GGT (UGT79B1, AtA3G2XylT) (Arabidopsis thaliana, UniProt Q9LVW3); assay: HPLC / LC-MS glycosyltransferase assay with crude recombinant yeast extract; format: cell-based; details: acceptor; donor UDP-xylose; 100 mM phosphate pH 7.0, 37 °C, 2 h
# T1 construct: gene A3G2XYLT; full length, C-terminal His6, pYES2 in Saccharomyces cerevisiae BY4742, crude yeast extract
# T1 sequence (Q9LVW3 1-468): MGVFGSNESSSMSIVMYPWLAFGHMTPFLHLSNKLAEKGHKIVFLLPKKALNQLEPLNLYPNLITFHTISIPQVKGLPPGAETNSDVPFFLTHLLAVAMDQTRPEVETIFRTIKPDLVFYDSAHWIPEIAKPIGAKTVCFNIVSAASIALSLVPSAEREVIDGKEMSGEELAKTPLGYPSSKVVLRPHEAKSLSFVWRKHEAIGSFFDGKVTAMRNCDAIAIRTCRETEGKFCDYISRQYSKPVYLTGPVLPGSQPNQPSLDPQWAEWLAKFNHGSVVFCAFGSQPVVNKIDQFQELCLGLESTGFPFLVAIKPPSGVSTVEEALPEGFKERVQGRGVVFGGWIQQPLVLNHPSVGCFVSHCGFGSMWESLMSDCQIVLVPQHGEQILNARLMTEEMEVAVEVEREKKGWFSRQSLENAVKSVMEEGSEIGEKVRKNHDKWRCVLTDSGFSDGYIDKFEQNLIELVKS
# Ib3GGT (IbA3G2GluT) = target: T2, Ib3GGT (IbA3G2GluT) (Ipomoea batatas, UniProt A1YM58); assay: as above; format: cell-based; details: acceptor; donor 1 mM UDP-glucose; 100 mM phosphate pH 7.0, 37 °C, 2 h
# T2 construct: gene GT
# T2 sequence (A1YM58 entry or part of it): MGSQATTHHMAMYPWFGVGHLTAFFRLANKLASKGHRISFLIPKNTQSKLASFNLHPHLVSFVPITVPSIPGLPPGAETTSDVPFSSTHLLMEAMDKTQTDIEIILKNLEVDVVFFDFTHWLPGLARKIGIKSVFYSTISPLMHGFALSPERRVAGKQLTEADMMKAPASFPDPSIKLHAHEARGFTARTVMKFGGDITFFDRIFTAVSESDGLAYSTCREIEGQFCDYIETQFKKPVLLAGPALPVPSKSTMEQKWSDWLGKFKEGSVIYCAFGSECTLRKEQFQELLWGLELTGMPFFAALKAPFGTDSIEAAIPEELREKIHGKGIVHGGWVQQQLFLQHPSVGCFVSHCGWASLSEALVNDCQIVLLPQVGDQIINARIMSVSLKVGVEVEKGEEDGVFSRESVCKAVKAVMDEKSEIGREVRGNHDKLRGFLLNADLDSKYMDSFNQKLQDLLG
smiles,measurement,setting,value
OC[C@H]1O[C@@H](Oc2cc3c(O)cc(O)cc3[o+]c2-c2ccc(O)c(O)c2)[C@H](O)[C@@H](O)[C@@H]1O [cyanidin 3-O-glucoside],HPLC / LC-MS glycosyltransferase assay with crude recombinant yeast extract,[1],using only UDP-xylose as the sugar donor to catalyse cyanidin 3-O-glucoside into cyanidin 3-O-glucoside-2″-O-xyloside
same,HPLC / LC-MS glycosyltransferase assay with crude recombinant yeast extract,Ib3GGT (IbA3G2GluT),The recombinant Ib3GGT protein only catalysed the conversion of cyanidin 3-O-glucoside into cyanidin 3-O-sophoroside

# — article PMC6255700, “A novel glycosyltransferase catalyses the transfer of glucose to glucosylated anthocyanins in purple sweet potato” (Journal of Experimental Botany, 2018)
